Our source for the EC50 and CC50 values is US9944598B2, “Mono- or di-substituted indole derivatives as dengue viral replication inhibitors” (priority 2014, dated 2018).

Holding throughout (assay type): cell-based
For one series, the system named is DENV-1 strain TC974#666. In words: Tetravalent RT-qPCR assay Protocol A, serotype 1. Conditions: Dengue virus, DENV1, 72 h, RT-qPCR serotype 1 TC974#666, Vero cells, 3 days. As to the method: (§1) The antiviral activity of the compounds of the invention was tested against DENV-1 strain TC974#666 (NCPV), DENV-2 strain 16681, DENV-3 strain H87 (NCPV) and DENV-4 strains H241 (NCPV) and EDEN (SG/06K2270DK1/2005; GenBank accession number QG398256) in a RT-qPCR assay. Therefore, Vero cells were infected with either DENV-1, or -2, or -3, or -4 in the presence or absence of test compounds. At day 3 post-infection, the cells were lysed and cell lysates were used to prepare cDNA of both a viral target (the 3′UTR of DENV; table 2) and a cellular reference gene (β-actin, table 2). Subsequently, a duplex real time PCR was performed on a Lightcycler480 instrument. The generated Cp value is inversely proportional to the amount of RNA expression of these targets. Inhibition of DENV replication by a test compound result in a shift of Cp's for the 3′UTR gene. On the other hand, if a test compound is toxic to the cells, a similar effect on β-actin expression will be observed. The comparative ΔΔCp method is used to calculate EC50, which is based on the relative gene expression of the target gene (3′UTR) normalized with the cellular housekeeping gene (β-actin). In addition, CC50 values were determined based on the Cp values acquired for the housekeeping gene β-actin.
(§2) The culture medium consisted of minimal essential medium supplemented with 2% of heat-inactivated fetal calf serum, 0.04% gentamycin (50 mg/mL) and 2 mM of L-glutamine. Vero cells, obtained from ECACC, were suspended in culture medium and 75 μL/well was added in 96-well plates (10000 cells/well), which already contain the antiviral compounds. Typically, these plates contain a 4-fold serial dilution of 9 dilution steps of the test compound at 200 times the final concentration in 100% DMSO (500 nL; final concentration range: 25 μM-0.00038 μM). In addition, each plate contains wells which are assigned as virus controls (containing cells and virus in the absence of compound) and cell controls (containing cells in the absence of virus and compound). Once the cells were added in the plates, the plates were incubated in a fully humidified incubator (37° C., 5% CO2) until the next day. Then, DENV-1 strain TC974#666, DENV-2 strain 16681, DENV-3 strain H87 or DENV-4 strains H241 or EDEN were added. […] In parallel, 25 μL of culture medium was added to the cell controls. Next, the plates were incubated for 3 days in a fully humidified incubator (37° C., 5% CO2). After 3 days, the supernatant was removed from the wells and the cells were washed twice with ice-cold PBS (˜100 μL). The cell pellets within the 96-well plates were stored at −80° C. for at least 1 day. Next, RNA was extracted using the Cells-to-CT™ lysis kit, according to the manufacture's guideline (Applied Biosystems). The cell lysates can be stored at −80° C. or immediately used in the reverse transcription step.
In preparation of the reverse transcription step, mix A (table 3A) was prepared and 7.57 μL/well was dispensed in a 96-well plate. After addition of 5 μL of the cell lysates, a five minute denaturation step at 75° C. was performed (table 3B). Afterwards, 7.43 μL of mix B was added (table 3C) and the reverse transcription step was initiated (table 3D) to generate cDNA.
Finally, a RT-qPCR mix was prepared, mix C (table 4A), dispensed in 96-well LightCycler qPCR plates to which 3 μL of cDNA was added and the qPCR was performed according to the conditions in table 4B on a LightCycler 480.
(§3) Using the LightCycler software and an in-house LIMS system, dose response curves for each compound were calculated and the half maximal effective concentration (EC50) and the half maximal cytotoxic concentration (CC50) were determined (Tables 6-9).
(Quantitative PCR measures a nucleic acid by following its amplification.)

In a further series the test system is uninfected Vero cells. In words: in vitro. To be noted: African green monkey. As for the experimental part:
(§4) Potential cytotoxic effects of the compounds were evaluated in uninfected Vero cells. Cells were seeded at 4×10^4 cells/well in a 96-well plate in the presence of two-, three- or five-fold serial dilutions (ranging from 50 μg/mL-0.0038 μg/mL, 50 μg/mL-0.0076 μg/mL, and 50 μg/mL-0.00013 μg/mL, respectively) of compound and incubated for 4 to 7 days. Culture medium was discarded and 100 μL 3-(4,5-dimethylthiazol-2-yl)-5-(3-carboxymethoxyphenyl)-2-(4-sulfophenyl)-2H-tetrazolium/phenazinemethosulfate (MTS/PMS; Promega, Leiden, The Netherlands) in PBS was added to each well. Following a 2-hour incubation period at 37° C., the optical density was determined at 498 nm. Cytotoxic activity was calculated using the following formula: % cell viability=100×(ODCompound/ODCC), where ODCompound and ODCC correspond to the optical density at 498 nm of the uninfected cell cultures treated with compound and that of uninfected, untreated cell cultures, respectively. The 50% cytotoxic concentration (i.e., the concentration that reduces the total cell number with 50%; CC50) was calculated using linear interpolation (Tables 7 and 8).

Series [1] is described as follows: in vitro. Conditions: African green monkey, CC50. As for the experimental part: as §4
Series [2] can be described thus: in vitro. To be noted: African green monkey. As for the experimental part: as §1, §2, §3

For orientation: EC50 means the concentration giving half of the maximal effect. As a reminder, the CC50 is the concentration at which the toxic effect on the cells reaches its halfway point. Regarding `COc1cc(NC(C(=O)c2c[nH]c3cc(F)ccc23)c2ccc(Cl)cc2OC)cc(OCCO)c1` (single isomer, unassigned) [Compound 1A, 2-(4-chloro-2-methoxyphenyl)-1-(6-fluoro-1H-indol-3-yl)-2-((3-(2-hydroxyethoxy)-5-methoxyphenyl)amino)ethanone], in the series on DENV-1 strain TC974#666, the EC50 was determined as 0.0077 µM. For the same compound, the figures for the cytotoxic concentration (CC50) in the series on uninfected Vero cells and in “in vitro [1]” were 14 µM and 9.7 µM, respectively.
Taken in the same sequence, the figures for `COc1cc(NC(C(=O)c2c[nH]c3c(C)c(F)ccc23)c2ccc(Cl)cc2OC)cc(OCCO)c1` (single isomer, unassigned) [Compound 2A, 2-(4-chloro-2-methoxyphenyl)-1-(6-fluoro-7-methyl-1H-indol-3-yl)-2-((3-(2-hydroxyethoxy)-5-methoxyphenyl)amino)ethanone] were 0.0071 µM, 13 µM and 7.4 µM.
Turning to `COc1cc(NC(C(=O)c2c[nH]c3c(C)c(Cl)ccc23)c2ccc(Cl)cc2OC)cc(OCCO)c1` (single isomer, unassigned) [Compound 3A, 2-(4-chloro-2-methoxyphenyl)-1-(6-chloro-7-methyl-1H-indol-3-yl)-2-((3-(2-hydroxyethoxy)-5-methoxyphenyl)amino)ethanone], a half-maximal response with DENV-1 strain TC974#666 (EC50) required 0.0053 µM. Besides, the results for the CC50 with uninfected Vero cells and in “in vitro [1]” were 12 µM and 7.7 µM, respectively. The compound further had a 50% cytotoxic concentration (CC50) at 3 days in “in vitro [2]” of 3.8 µM.
On to `COc1cc(NC(C(=O)c2c[nH]c3cc(Cl)ccc23)c2ccc(Cl)cc2OC)cc(OCCO)c1` (single isomer, unassigned) [Compound 4A, 1-(6-chloro-1H-indol-3-yl)-2-(4-chloro-2-methoxyphenyl)-2-((3-(2-hydroxyethoxy)-5-methoxyphenyl)amino)ethanone], for which, in the series on DENV-1 strain TC974#666, the midpoint of the response, the EC50, lay at 0.0078 µM. The CC50 was 13 µM in the series on uninfected Vero cells and 9.5 µM in the series “in vitro [1]”.
On to `COc1cc(NC(C(=O)c2c[nH]c3cc(OC)ccc23)c2ccc(Cl)cc2OC)cc(OCCO)c1` (single isomer, unassigned) [Compound 5A, 2-(4-chloro-2-methoxyphenyl)-2-((3-(2-hydroxyethoxy)-5-methoxyphenyl)amino)-1-(6-methoxy-1H-indol-3-yl)ethanone], for which the EC50 in the series on DENV-1 strain TC974#666 is 0.013 µM. The CC50 turned out to be 11 µM in the series with uninfected Vero cells and 7.8 µM in the series “in vitro [1]”. This compound also returned a CC50 at 3 days in “in vitro [2]” of 5.2 µM.
Take `COc1cc(NC(C(=O)c2c[nH]c3cc(OC)c(C)cc23)c2ccc(Cl)cc2OC)cc(OCCO)c1` (single isomer, unassigned) [Compound 6A, 2-(4-chloro-2-methoxyphenyl)-2-((3-(2-hydroxyethoxy)-5-methoxyphenyl)amino)-1-(6-methoxy-5-methyl-1H-indol-3-yl)ethanone]: a half-maximal response with DENV-1 strain TC974#666 (EC50) required 0.0036 µM. In addition, the CC50 in the series with uninfected Vero cells came to 13 µM; in “in vitro [1]”, 8.1 µM.
`COc1cc(NC(C(=O)c2c[nH]c3cc(OC)c(F)cc23)c2ccc(Cl)cc2OC)cc(OCCO)c1` (single isomer, unassigned) [Compound 7A, 2-(4-chloro-2-methoxyphenyl)-1-(5-fluoro-6-methoxy-1H-indol-3-yl)-2-((3-(2-hydroxyethoxy)-5-methoxyphenyl)amino)ethanone] displayed a concentration giving a half-maximal response (EC50) in the series on DENV-1 strain TC974#666 of 0.016 µM. In addition, the CC50 came out at 12 µM in the series with uninfected Vero cells and 7.2 µM in “in vitro [1]”. For the same compound, the midpoint of cytotoxicity in the series “in vitro [2]”, the CC50 at 3 days, lay at 4.6 µM.
For `COc1cc(NC(C(=O)c2c[nH]c3c(C)cc(F)cc23)c2ccc(Cl)cc2OC)cc(OCCO)c1` (single isomer, unassigned) [Compound 8A, 2-(4-chloro-2-methoxyphenyl)-1-(5-fluoro-7-methyl-1H-indol-3-yl)-2-((3-(2-hydroxyethoxy)-5-methoxyphenyl)amino)ethanone] the same measures were 0.0096 µM, 11 µM, 7.7 µM and 3.5 µM.
For `COc1cc(NC(C(=O)c2c[nH]c3cc(F)c(F)cc23)c2ccc(Cl)cc2OC)cc(OCCO)c1` (single isomer, unassigned) [Compound 9A, 2-(4-chloro-2-methoxyphenyl)-1-(5,6-difluoro-1H-indol-3-yl)-2-((3-(2-hydroxyethoxy)-5-methoxyphenyl)amino)ethanone] the same measures were 0.005 µM, 12 µM, 7.9 µM and 4.7 µM.
Taken in the same sequence, the figures for `COc1cc(NC(C(=O)c2c[nH]c3c(F)cc(C)cc23)c2ccc(Cl)cc2OC)cc(OCCO)c1` (single isomer, unassigned) [Compound 10A, 2-(4-chloro-2-methoxyphenyl)-1-(7-fluoro-5-methyl-1H-indol-3-yl)-2-((3-(2-hydroxyethoxy)-5-methoxyphenyl)amino)ethanone] were 0.014 µM, 12 µM, 8 µM and 4.1 µM.
`COc1cc(NC(C(=O)c2c[nH]c3c(F)c(F)ccc23)c2ccc(Cl)cc2OC)cc(OCCO)c1` (single isomer, unassigned) [Compound 11B, 2-(4-chloro-2-methoxyphenyl)-1-(6,7-difluoro-1H-indol-3-yl)-2-((3-(2-hydroxyethoxy)-5-methoxyphenyl)amino)ethanone] gave a 50% effective concentration (EC50) in the series with DENV-1 strain TC974#666 of 0.018 µM. Also, the CC50 in the series with uninfected Vero cells was 11 µM; in “in vitro [1]” it was 7.7 µM. Besides, the midpoint of cytotoxicity in the series “in vitro [2]”, the CC50 at 3 days, lay at 3.7 µM.
